“Also recorded” adds a separate entry of the source.
Assays:
HLA-A2 = HLA-A2 stabilization by FBP epitope E39 variants; format: binding, human; details: FIG. 1; compared with wild-type E39
Excerpt: (§1) The HLA-A2 stabilizing ability of the variant peptides has also been determined (FIG. 1). […] In contrast, substitutions at position 1 increase the binding affinity of the peptide. The results in FIG. 2 show the cytolytic activity of J65-induced CTL compared with E39-induced CTL.

[1] = system: peripheral blood mononuclear cells (PBMC); experiment: IFN-γ induction in PBMC with multiple peptide stimulations; format: cell-based, human
Excerpt: FIG. 2A illustrates IFN-γ induction in peripheral blood mononuclear cells (PBMC) with multiple stimulations with J65 or E39.
as §1
(§2) To address the effects of FBP variants on induction of CTL activity, PBMC cultures from the healthy donor stimulated three times with J65 were split in three and restimulated with either E39 or J65 or J77. A control culture was made of the same PBMC stimulated three times with E39 and restimulated with E39 for the fourth time. […] It was recently reported that memory CTL reacting with the tumor Ag such as FBP are present in the blood of healthy individuals (Lee et al., 2000). These cells can be easily activated by stimulation with the corresponding peptide presented on dendritic cells (Kim et al., 1999). To evaluate the stimulating ability of the analogs J65 and J77, PBMC from a responding donor were stimulated with E39, J65 and J77.

[2] = system: peripheral blood mononuclear cells (PBMC); experiment: CTL activity in PBMC with multiple peptide stimulations; format: cell-based, human; details: for CTL activity: recognition of E39: healthy donor PBMC stimulated three times with the peptide, then restimulated with E39
Excerpt: FIG. 2B illustrates CTL activity in PBMC with multiple stimulations with J65 or E39.
CTL activity can be assessed by methods described herein or as would be known to one of skill in the art. For example, CTLs may be assessed in freshly isolated peripheral blood mononuclear cells (PBMC), in a phytohaemaglutinin-stimulated IL-2 expanded cell line established from PBMC (Bernard et at., 1998) or by T cells isolated from a previously immunized subject and restimulated for 6 days with DC infected with an adenovirus vector containing antigen using standard 4 h 51^Cr release microtoxicity assays. In another fluorometric assay developed for detecting cell-mediated cytotoxicity, the fluorophore used is the non-toxic molecule ALAMARBLUE (dye) (Nociari et at., 1998). The ALAMARBLUE (dye) is fluorescently quenched (i.e., low quantum yield) until mitochondrial reduction occurs, which then results in a dramatic increase in the alamarBlue fluorescence intensity (i.e., increase in the quantum yield).
as §2

[3] = system: peripheral blood mononuclear cells (PBMC); experiment: Specific IL-2 induction in PBMC by priming with E39 variants; format: cell-based, human; details: PBMC of responding donor; compared with wild-type peptide E39; FIG. 3
Excerpt: FIG. 3 illustrates specific interleukin 2 (IL-2) induction in PBMCs by priming with E39 variants.
(§3) To identify which of E39 variants induced higher cell expansion, PBMC from the same donor were stimulated three times with the corresponding peptide, and the resulting live cells were counted a week after each stimulation. […] Similar results were obtained with J65 in another donor (FIG. 5).

[4] = system: peripheral blood mononuclear cells (PBMC); experiment: Expansion of PBMC stimulated with FBP peptide E39 and its variants (live cell counts); format: cell-based, human
Excerpt: FIG. 4 illustrates expansion of PBMCs stimulated with FBP peptide E39 and its variants.
as §3

HLA-A2 (human) = experiment: HLA-A2 stabilization assay (FIG. 1)
[5] = same donor, stimulated three times with peptide, live cells counted a week after each stimulation, FIG. 4

| HLA-A2 stabilizing ability relative to E39 (HLA-A2 (human)) | Molecule | HLA-A2 stabilizing ability (HLA-A2) | IFN-γ induction ([1]; 3×J65 stimulated PBMC cultures restimulated with the peptide, FIG. 2) | IFN-γ secretion elicited by wild-type epitope E39 in peptide-primed CTL ([1]; CTL primed with the peptide, then stimulated with E39) | CTL activity: recognition of E39 [2] | IL-2 induction [3] | cell expansion of PBMC cultures ([4]; another donor, FIG. 5) | cell expansion of PBMC cultures [4, 5] | CTL activity ([2]; healthy donor PBMC stimulated three times with J65 (3×J65), restimulated with the peptide) |
| --- | --- | --- | --- | --- | --- | --- | --- | --- | --- |
| – | EIWTFSTKV [J65, E39 variant H5→F, Y7→T] | almost half of the stabilizing ability of E39 | weaker inducer of IFN-γ | higher | significantly higher recognition of E39; also recorded: higher CTL activity | lower levels of IL-2 | expanded faster | increased faster in numbers | – |
| – | EIWTFSYKV [J78, E39 variant H5→F] | – | – | – | – | – | expanded, but at a slower rate | proliferated slower than control cultures | – |
| – | EIWTHSTKV [J77, E39 variant Y7→T] | – | – | – | – | lower levels of IL-2 | expanded, but at a slower rate | proliferated slower than control cultures | significantly lower CTL activity |
| – | EIWTHSYKV [E39, reference compound] | – | – | – | moderate weak recognition of E39 | – | died after the third stimulation | initially expanded faster than other cultures | – |
| 0.5 fold of E39 | EIWTFSTKV [J65 (variant of FBP epitope E39, H5→F, Y7→T)] | – | – | – | – | – | – | – | – |

— US7547759B2, “Induction of tumor immunity by variants of folate binding protein” (Board of Regents, The University of Texas System, priority 2001, dated 2009)
